Measured values: patent publication US20120264796A1, “METHODS FOR MODULATING CIRCADIAN RHYTHMS” (THE SALK INSTITUTE FOR BIOLOGICAL STUDIES, priority 2009, published 2012)

Tests used:
Assay type in all cases: cell-based
[1] = tested on: ampkα1−/−; ampkα2−/− (AMPK−/−) mouse embryonic fibroblasts; test: Circadian reverbα and dbp expression by quantitative PCR in serum-stimulated MEFs lacking AMPK; details: 25 mM glucose supplemented with 1 mM AICAR
Description: (§1) (A) Unsynchronized paired wild type (AMPK^+/+) or ampkα1^−/−; ampkα2^−/− (AMPK−/−) mouse embryonic fibroblasts were stimulated by 2 hour exposure to 50% horse serum followed by transfer to media containing 25 mM glucose, 0.5 mM glucose or 25 mM glucose supplemented with 1 mM AICAR. Quantitative PCR analysis was performed using cDNA samples collected at the indicated times following stimulation. Data represent the mean of two independent experiments, each analyzed in triplicate. (B) Fibroblasts stably expressing Bmal1-luciferase were cultured in media containing the indicated amounts of glucose with or without 2 mM AICAR. Typical results of continuous monitoring of luciferase activity are shown. (C and D) Quantitation of the circadian period (C) and amplitude (D) of Bmal1-driven luciferase activity from experiments performed as described in (B). Data in (C) and (D) represent the mean±standard deviation for four samples per condition. […]
(§2) FIG. 4A-B show disruption of AMPK alters circadian rhythms in MEFs. […] Quantitative PCR analysis was performed using cDNA samples prepared from lysates collected at the indicated times following stimulation. Data represent the mean±standard deviation of two or three independent experiments each analyzed in triplicate. […]

[2] = tested on: wild type (AMPK+/+) mouse embryonic fibroblasts; test: Circadian reverbα and dbp expression by quantitative PCR in serum-stimulated wild type fibroblasts; details: 25 mM glucose supplemented with 1 mM AICAR, after 2 hour 50% horse serum, compared with 0.5 mM glucose
Description: as §1, §2

[3] = tested on: Fibroblasts stably expressing Bmal1-luciferase; test: Continuous monitoring of Bmal1-driven luciferase activity in fibroblasts; details: media with 2 mM AICAR vs 25 mM glucose
Description: (A) Unsynchronized paired wild type (AMPK^+/+) or ampkα1^−/−; ampkα2^−/− (AMPK−/−) mouse embryonic fibroblasts were stimulated by 2 hour exposure to 50% horse serum followed by transfer to media containing 25 mM glucose, 0.5 mM glucose or 25 mM glucose supplemented with 1 mM AICAR. Quantitative PCR analysis was performed using cDNA samples collected at the indicated times following stimulation. Data represent the mean of two independent experiments, each analyzed in triplicate. (B) Fibroblasts stably expressing Bmal1-luciferase were cultured in media containing the indicated amounts of glucose with or without 2 mM AICAR. Typical results of continuous monitoring of luciferase activity are shown. (C and D) Quantitation of the circadian period (C) and amplitude (D) of Bmal1-driven luciferase activity from experiments performed as described in (B). Data in (C) and (D) represent the mean±standard deviation for four samples per condition. ANOVA analysis indicated a significant difference between categories. ** P<0.01 vs. samples cultured in 25 mM glucose in Scheffe's post-hoc analysis.
The Bmal1 promoter is repressed by REVERBα. Therefore, the effects of reducing glucose availability on circadian rhythms was examined using fibroblasts stably expressing luciferase under the control of a Bmal1 promoter. […]

NC(=O)c1ncn([C@@H]2O[C@H](CO)[C@@H](O)[C@H]2O)c1N [AICAR, 5-amino-4-imidazolecarboxamide riboside]
expression of reverbα and dbp [1]: neither glucose deprivation nor AICAR treatment affected the expression of reverbα and dbp
amplitude of circadian reverbα and dbp expression [2]: mimicked the effects of glucose deprivation
amplitude of Bmal1-luciferase expression [3]: decreased the amplitude of Bmal1-luciferase expression
